Experiments:
[1] = test system: Primary T cells CD4+ activated; experiment: metabolic activity relative to DMSO, 18 h (ratio); higher = more viable
Summary of the method: (§1)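 Compound was added at 1 nM–10 µM (log10 steps) for 18 h at 37 °C, 5% CO2 to Jurkat cells or to primary CD4+/CD8+ T cells that were naive or had been activated 48 h with CD3/CD28 Dynabeads. After alamarBlue was added to 10% v/v final, fluorescence (excitation 544 nm, emission 584 nm) was measured 3.5 h later. Values for metabolic activity are normalised to the mean of vehicle controls.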

[2] = test system: Primary T cells CD4+ naive; experiment: as above
Summary of the method: as §1

[3] = test system: Primary T cells CD8+ naive; experiment: as above
Summary of the method: as §1

Jurkat [4] = experiment: as above
Summary of the method: as §1

[5] = test system: Primary T cells CD8+ activated; experiment: as above
Summary of the method: as §1

[6] = test system: Primary T cells CD4+ activated; experiment: cytotoxicity relative to DMSO, 18 h (ratio); higher = less cell death (drugs called cytotoxic fall below 1)
Summary of the method: (§2)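 The assay used Jurkat cells or naive or CD3/CD28 Dynabead-activated (48 h) primary CD4+/CD8+ T cells, incubated with compound at 1 nM–10 µM in log10 steps for 18 h at 37 °C, 5% CO2. Cytotoxicity was assessed with IncuCyte Cytotox Dye and IncuCyte fluorescence imaging, corrected for confluency and scaled to mean control signals.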

[7] = test system: Primary T cells CD4+ naive; experiment: as above
Summary of the method: as §2

[8] = test system: Primary T cells CD8+ naive; experiment: as above
Summary of the method: as §2

Jurkat [9] = experiment: as above
Summary of the method: as §2

[10] = test system: Primary T cells CD8+ activated; experiment: as above
Summary of the method: as §2

[11] = test system: Primary T cells CD4+ activated; experiment: confluency relative to DMSO, 18 h (ratio); higher = more viable
Summary of the method: (§3)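 Cells (Jurkat, or primary CD4+/CD8+ T cells either naive or stimulated 48 h with CD3/CD28 Dynabeads) were incubated with compound for 18 h at 37 °C, 5% CO2, across 1 nM–10 µM in log10 steps. Each 100 µl suspension was then placed in a 96-well plate with IncuCyte Cytotox Dye and alamarBlue and imaged by phase contrast at ×10, five images per well, hourly over 3 h. Confluency values come from the Basic Analyzer and are relative to the mean of the control wells.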

[12] = test system: Primary T cells CD4+ naive; experiment: as above
Summary of the method: as §3

[13] = test system: Primary T cells CD8+ naive; experiment: as above
Summary of the method: as §3

Jurkat [14] = experiment: as above
Summary of the method: as §3

[15] = test system: Primary T cells CD8+ activated; experiment: as above
Summary of the method: as §3

Which metabolic activity ([1]; 1 nM) does the source give for `Cc1[nH]c2ccccc2c1CCNCc1ccc(C=CC(=O)NO)cc1` [Panobinostat] here?
The metabolic activity was 0.998.

What about the metabolic activity ([1]; 10 nM) of the same compound?
The metabolic activity was 0.826.

And the metabolic activity ([1]; 100 nM)?
The metabolic activity was 0.627.

And the metabolic activity ([1]; 1000 nM)?
Its metabolic activity is 0.616.

And the metabolic activity ([1]; 10000 nM)?
The metabolic activity was 0.875.

And the metabolic activity ([2]; 1 nM)?
The metabolic activity was 0.856.

What about the metabolic activity ([2]; 10 nM) of the same compound?
The metabolic activity was 0.957.

And the metabolic activity ([2]; 100 nM)?
The metabolic activity was 0.728.

And the metabolic activity ([2]; 1000 nM)?
The metabolic activity was 0.726.

And the metabolic activity ([2]; 10000 nM)?
Its metabolic activity is 0.813.

What about the metabolic activity ([3]; 1 nM) of the same compound?
Its metabolic activity is 0.913.

And the metabolic activity ([3]; 10 nM)?
Its metabolic activity is 0.881.

And the metabolic activity ([3]; 100 nM)?
Its metabolic activity is 0.836.

What about the metabolic activity ([3]; 1000 nM) of the same compound?
The metabolic activity was 0.779.

What about the metabolic activity ([3]; 10000 nM) of the same compound?
Its metabolic activity is 0.766.

And the metabolic activity (Jurkat [4]; 1 nM)?
Its metabolic activity is 1.05.

What about the metabolic activity (Jurkat [4]; 10 nM) of the same compound?
The metabolic activity was 0.782.

And the metabolic activity (Jurkat [4]; 100 nM)?
The metabolic activity was 0.681.

And the metabolic activity (Jurkat [4]; 1000 nM)?
Its metabolic activity is 0.72.

And the metabolic activity (Jurkat [4]; 10000 nM)?
The metabolic activity was 0.849.

What about the metabolic activity ([5]; 1 nM) of the same compound?
The metabolic activity was 1.

And the metabolic activity ([5]; 10 nM)?
The metabolic activity was 0.909.

What about the metabolic activity ([5]; 100 nM) of the same compound?
Its metabolic activity is 0.738.

And the metabolic activity ([5]; 1000 nM)?
The metabolic activity was 0.725.

What about the metabolic activity ([5]; 10000 nM) of the same compound?
Its metabolic activity is 0.778.

What about the cytotoxicity ([6]; 1 nM) of the same compound?
Its cytotoxicity is 1.04.

And the cytotoxicity ([6]; 10 nM)?
The cytotoxicity was 1.08.

What about the cytotoxicity ([6]; 100 nM) of the same compound?
The cytotoxicity was 1.32.

What about the cytotoxicity ([6]; 1000 nM) of the same compound?
The cytotoxicity was 1.5.

And the cytotoxicity ([6]; 10000 nM)?
Its cytotoxicity is 0.92.

And the cytotoxicity ([7]; 1 nM)?
The cytotoxicity was 1.29.

And the cytotoxicity ([7]; 10 nM)?
The cytotoxicity was 0.906.

And the cytotoxicity ([7]; 100 nM)?
The cytotoxicity was 1.33.

What about the cytotoxicity ([7]; 1000 nM) of the same compound?
The cytotoxicity was 1.19.

And the cytotoxicity ([7]; 10000 nM)?
The cytotoxicity was 0.853.

What about the cytotoxicity ([8]; 1 nM) of the same compound?
Its cytotoxicity is 1.34.

And the cytotoxicity ([8]; 10 nM)?
Its cytotoxicity is 0.493.

And the cytotoxicity ([8]; 100 nM)?
Its cytotoxicity is 1.16.

What about the cytotoxicity ([8]; 1000 nM) of the same compound?
Its cytotoxicity is 0.814.

What about the cytotoxicity ([8]; 10000 nM) of the same compound?
Its cytotoxicity is 1.06.

What about the cytotoxicity (Jurkat [9]; 1 nM) of the same compound?
Its cytotoxicity is 0.94.

What about the cytotoxicity (Jurkat [9]; 10 nM) of the same compound?
Its cytotoxicity is 0.843.

What about the cytotoxicity (Jurkat [9]; 100 nM) of the same compound?
The cytotoxicity was 0.933.

What about the cytotoxicity (Jurkat [9]; 1000 nM) of the same compound?
The cytotoxicity was 0.873.

And the cytotoxicity (Jurkat [9]; 10000 nM)?
The cytotoxicity was 0.921.

What about the cytotoxicity ([10]; 1 nM) of the same compound?
The cytotoxicity was 0.993.

What about the cytotoxicity ([10]; 10 nM) of the same compound?
The cytotoxicity was 0.888.

What about the cytotoxicity ([10]; 100 nM) of the same compound?
The cytotoxicity was 1.11.

And the cytotoxicity ([10]; 1000 nM)?
The cytotoxicity was 1.34.

And the cytotoxicity ([10]; 10000 nM)?
The cytotoxicity was 1.3.

What about the confluency ([11]; 1 nM) of the same compound?
Its confluency is 1.04.

What about the confluency ([11]; 10 nM) of the same compound?
Its confluency is 1.01.

And the confluency ([11]; 100 nM)?
The confluency was 1.17.

What about the confluency ([11]; 1000 nM) of the same compound?
The confluency was 1.35.

And the confluency ([11]; 10000 nM)?
Its confluency is 1.02.

And the confluency ([12]; 1 nM)?
The confluency was 1.2.

What about the confluency ([12]; 10 nM) of the same compound?
The confluency was 1.02.

And the confluency ([12]; 100 nM)?
The confluency was 1.29.

What about the confluency ([12]; 1000 nM) of the same compound?
The confluency was 1.13.

What about the confluency ([12]; 10000 nM) of the same compound?
Its confluency is 0.869.

What about the confluency ([13]; 1 nM) of the same compound?
Its confluency is 1.19.

What about the confluency ([13]; 10 nM) of the same compound?
Its confluency is 0.473.

And the confluency ([13]; 100 nM)?
The confluency was 1.08.

What about the confluency ([13]; 1000 nM) of the same compound?
Its confluency is 0.774.

What about the confluency ([13]; 10000 nM) of the same compound?
Its confluency is 0.932.

And the confluency (Jurkat [14]; 1 nM)?
The confluency was 0.912.

What about the confluency (Jurkat [14]; 10 nM) of the same compound?
The confluency was 0.937.

And the confluency (Jurkat [14]; 100 nM)?
The confluency was 1.01.

And the confluency (Jurkat [14]; 1000 nM)?
The confluency was 0.992.

What about the confluency (Jurkat [14]; 10000 nM) of the same compound?
The confluency was 0.978.

What about the confluency ([15]; 1 nM) of the same compound?
Its confluency is 0.974.

And the confluency ([15]; 10 nM)?
Its confluency is 0.886.

What about the confluency ([15]; 100 nM) of the same compound?
The confluency was 1.04.

What about the confluency ([15]; 1000 nM) of the same compound?
The confluency was 1.26.

And the confluency ([15]; 10000 nM)?
Its confluency is 1.21.

What does the source list for `Nc1cc(F)ccc1NC(=O)c1ccc(CNC(=O)C=Cc2cccnc2)cc1` [Tucidinostat]?
metabolic activity ([2]; 1 nM): 0.862; metabolic activity ([2]; 10 nM): 1.05; metabolic activity ([2]; 100 nM): 0.872; metabolic activity ([2]; 1000 nM): 0.881; metabolic activity ([2]; 10000 nM): 0.697; metabolic activity (Jurkat [4]; 1 nM): 0.891; metabolic activity (Jurkat [4]; 10 nM): 0.945; metabolic activity (Jurkat [4]; 100 nM): 0.974; metabolic activity (Jurkat [4]; 1000 nM): 0.952; metabolic activity (Jurkat [4]; 10000 nM): 0.882; cytotoxicity ([7]; 1 nM): 1.13; cytotoxicity ([7]; 10 nM): 1.05; cytotoxicity ([7]; 100 nM): 1.42; cytotoxicity ([7]; 1000 nM): 1.19; cytotoxicity ([7]; 10000 nM): 0.636; cytotoxicity (Jurkat [9]; 1 nM): 1.08; cytotoxicity (Jurkat [9]; 10 nM): 0.992; cytotoxicity (Jurkat [9]; 100 nM): 0.929; cytotoxicity (Jurkat [9]; 1000 nM): 0.871; cytotoxicity (Jurkat [9]; 10000 nM): 0.987; confluency ([12]; 1 nM): 1.08; confluency ([12]; 10 nM): 1.18; confluency ([12]; 100 nM): 1.3; confluency ([12]; 1000 nM): 1.26; confluency ([12]; 10000 nM): 0.617; confluency (Jurkat [14]; 1 nM): 1; confluency (Jurkat [14]; 10 nM): 0.981; confluency (Jurkat [14]; 100 nM): 0.912; confluency (Jurkat [14]; 1000 nM): 0.878; confluency (Jurkat [14]; 10000 nM): 1.03

What does the source list for `O=C(CCCCCCC(=O)Nc1ccccc1)NO` [Vorinostat]?
metabolic activity ([1]; 1 nM): 0.849; metabolic activity ([1]; 10 nM): 0.979; metabolic activity ([1]; 100 nM): 0.964; metabolic activity ([1]; 1000 nM): 0.945; metabolic activity ([1]; 10000 nM): 0.788; metabolic activity ([2]; 1 nM): 0.859; metabolic activity ([2]; 10 nM): 0.862; metabolic activity ([2]; 100 nM): 0.902; metabolic activity ([2]; 1000 nM): 1.02; metabolic activity ([2]; 10000 nM): 0.913; metabolic activity (Jurkat [4]; 1 nM): 0.947; metabolic activity (Jurkat [4]; 10 nM): 0.907; metabolic activity (Jurkat [4]; 100 nM): 0.815; metabolic activity (Jurkat [4]; 1000 nM): 0.809; metabolic activity (Jurkat [4]; 10000 nM): 0.764; confluency (Jurkat [14]; 1 nM): 1.03; confluency (Jurkat [14]; 10 nM): 1; confluency (Jurkat [14]; 100 nM): 1.14; confluency (Jurkat [14]; 1000 nM): 1.11; confluency (Jurkat [14]; 10000 nM): 1.36
